Assay results from patent US12343326B2, “Psychoactive medicines and their use for treating psychiatric and neurological conditions and disorders” (Transcend Therapeutics, Inc., priority 2021, dated 2025).

Assays:
Test in all cases: β-arrestin based GPCR screen (PathHunter / GPCRmax), antagonist mode
168 GPCRs [1] = target: 168 GPCRs (Homo sapiens, UniProt P49682)
168 GPCRs [2] = target: 168 GPCRs (Homo sapiens, UniProt P25106)
168 GPCRs [3] = target: 168 GPCRs (Homo sapiens, UniProt P14416); conditions: DRD2L
168 GPCRs [4] = target: 168 GPCRs (Homo sapiens, UniProt P51681); conditions: CCR5, CCR5, Antagonist
168 GPCRs [5] = target: 168 GPCRs (Homo sapiens, UniProt Q15077)
168 GPCRs [6] = target: 168 GPCRs (Homo sapiens, UniProt P41143)
168 GPCRs [7] = target: 168 GPCRs (Homo sapiens, UniProt Q8TDS4); conditions: GPR109A
168 GPCRs [8] = target: 168 GPCRs (Homo sapiens, UniProt P37288); conditions: AVPR1A, Antagonist
168 GPCRs [9] = target: 168 GPCRs (Homo sapiens, UniProt P50391)
168 GPCRs [10] = target: T1, 168 GPCRs (Homo sapiens, UniProt Q5NUL3)
T1 sequence (Q5NUL3 1-361): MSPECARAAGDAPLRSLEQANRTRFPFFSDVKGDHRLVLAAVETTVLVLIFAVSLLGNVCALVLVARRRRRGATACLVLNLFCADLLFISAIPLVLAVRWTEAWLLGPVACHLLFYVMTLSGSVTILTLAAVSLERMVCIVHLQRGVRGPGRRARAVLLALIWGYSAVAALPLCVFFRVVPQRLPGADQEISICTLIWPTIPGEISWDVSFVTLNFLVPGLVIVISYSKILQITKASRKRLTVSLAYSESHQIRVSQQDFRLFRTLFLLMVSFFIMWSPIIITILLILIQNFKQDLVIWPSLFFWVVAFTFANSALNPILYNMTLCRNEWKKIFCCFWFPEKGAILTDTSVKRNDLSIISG

168 GPCRs [11] = target: 168 GPCRs (Homo sapiens, UniProt P25024)
168 GPCRs [12] = target: 168 GPCRs (Homo sapiens, UniProt Q9Y5N1)
168 GPCRs [13] = target: 168 GPCRs (Homo sapiens, UniProt O95136)
168 GPCRs [14] = test system: 168 GPCRs
168 GPCRs [15] = target: 168 GPCRs (Homo sapiens, UniProt P08908); conditions: HTR1A
168 GPCRs [16] = target: 168 GPCRs (Homo sapiens, UniProt Q9HC97)
168 GPCRs [17] = target: 168 GPCRs (Homo sapiens, UniProt P49683); conditions: PRLHR
168 GPCRs [18] = target: 168 GPCRs (Homo sapiens, UniProt P51582)
168 GPCRs [19] = target: 168 GPCRs (Homo sapiens, UniProt P20309); conditions: CHRM3, Antagonist
168 GPCRs [20] = target: 168 GPCRs (Homo sapiens, UniProt P08912); conditions: CHRM5, Antagonist
168 GPCRs (Homo sapiens, UniProt P08912), sequence (P08912 whole entry): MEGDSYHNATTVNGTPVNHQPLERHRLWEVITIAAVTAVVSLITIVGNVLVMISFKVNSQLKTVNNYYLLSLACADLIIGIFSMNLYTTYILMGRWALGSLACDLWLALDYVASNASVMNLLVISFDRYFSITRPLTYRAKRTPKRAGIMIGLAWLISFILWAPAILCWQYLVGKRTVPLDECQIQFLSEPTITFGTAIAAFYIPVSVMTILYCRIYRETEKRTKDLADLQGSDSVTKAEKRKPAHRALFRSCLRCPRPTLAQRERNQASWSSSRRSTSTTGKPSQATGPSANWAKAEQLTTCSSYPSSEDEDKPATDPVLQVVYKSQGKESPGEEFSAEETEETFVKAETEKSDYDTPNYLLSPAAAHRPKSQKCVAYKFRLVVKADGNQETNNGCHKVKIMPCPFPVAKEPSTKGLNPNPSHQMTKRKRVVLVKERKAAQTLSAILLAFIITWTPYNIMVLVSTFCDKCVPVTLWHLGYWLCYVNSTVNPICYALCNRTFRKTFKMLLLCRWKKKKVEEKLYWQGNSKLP

168 GPCRs (Homo sapiens, UniProt Q8TDS4), sequence (Q8TDS4 whole entry): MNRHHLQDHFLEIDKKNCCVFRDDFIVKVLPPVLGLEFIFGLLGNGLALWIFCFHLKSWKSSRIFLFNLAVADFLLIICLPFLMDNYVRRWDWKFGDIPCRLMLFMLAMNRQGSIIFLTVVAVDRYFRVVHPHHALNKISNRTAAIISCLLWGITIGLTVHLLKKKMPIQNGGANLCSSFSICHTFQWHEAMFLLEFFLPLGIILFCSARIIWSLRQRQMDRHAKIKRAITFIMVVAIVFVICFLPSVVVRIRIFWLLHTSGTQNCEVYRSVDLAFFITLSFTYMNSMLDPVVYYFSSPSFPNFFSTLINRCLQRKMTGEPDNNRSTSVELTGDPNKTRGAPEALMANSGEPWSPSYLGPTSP
168 GPCRs (Homo sapiens, UniProt Q9Y5N1), sequence (Q9Y5N1 whole entry): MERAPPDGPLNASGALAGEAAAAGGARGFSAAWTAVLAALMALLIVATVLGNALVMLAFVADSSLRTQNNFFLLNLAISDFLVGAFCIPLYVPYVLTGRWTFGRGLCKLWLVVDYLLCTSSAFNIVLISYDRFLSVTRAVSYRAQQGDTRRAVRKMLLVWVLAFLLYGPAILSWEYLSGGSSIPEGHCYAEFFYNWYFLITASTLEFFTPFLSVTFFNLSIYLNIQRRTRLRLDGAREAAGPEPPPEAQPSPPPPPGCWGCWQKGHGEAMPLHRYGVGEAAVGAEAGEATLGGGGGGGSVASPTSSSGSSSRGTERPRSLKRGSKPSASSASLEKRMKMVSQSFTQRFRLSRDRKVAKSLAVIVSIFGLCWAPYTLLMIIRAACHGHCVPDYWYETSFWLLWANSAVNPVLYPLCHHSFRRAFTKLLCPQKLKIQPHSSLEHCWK
168 GPCRs (Homo sapiens, UniProt P41143), sequence (P41143 whole entry): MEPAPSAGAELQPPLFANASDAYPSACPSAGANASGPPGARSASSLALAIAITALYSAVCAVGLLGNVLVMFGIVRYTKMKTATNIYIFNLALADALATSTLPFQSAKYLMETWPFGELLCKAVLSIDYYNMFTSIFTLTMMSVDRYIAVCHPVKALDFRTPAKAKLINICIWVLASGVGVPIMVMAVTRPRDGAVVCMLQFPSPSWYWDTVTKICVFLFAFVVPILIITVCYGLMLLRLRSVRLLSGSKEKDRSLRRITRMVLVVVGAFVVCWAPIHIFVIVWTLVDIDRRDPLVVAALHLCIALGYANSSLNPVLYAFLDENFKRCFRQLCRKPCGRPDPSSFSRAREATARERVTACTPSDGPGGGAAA
168 GPCRs (Homo sapiens, UniProt P08908), sequence (P08908 whole entry): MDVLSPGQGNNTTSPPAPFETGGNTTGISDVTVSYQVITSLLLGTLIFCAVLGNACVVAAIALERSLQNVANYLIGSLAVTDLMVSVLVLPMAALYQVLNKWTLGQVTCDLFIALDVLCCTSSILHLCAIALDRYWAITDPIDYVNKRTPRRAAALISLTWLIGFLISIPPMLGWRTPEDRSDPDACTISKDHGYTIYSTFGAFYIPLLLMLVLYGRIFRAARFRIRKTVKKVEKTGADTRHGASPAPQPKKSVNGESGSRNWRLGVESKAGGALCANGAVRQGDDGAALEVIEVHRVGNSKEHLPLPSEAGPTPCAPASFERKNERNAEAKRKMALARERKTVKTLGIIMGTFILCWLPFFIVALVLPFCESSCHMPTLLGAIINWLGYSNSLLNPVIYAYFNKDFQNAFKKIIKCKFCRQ
168 GPCRs (Homo sapiens, UniProt P37288), sequence (P37288 whole entry): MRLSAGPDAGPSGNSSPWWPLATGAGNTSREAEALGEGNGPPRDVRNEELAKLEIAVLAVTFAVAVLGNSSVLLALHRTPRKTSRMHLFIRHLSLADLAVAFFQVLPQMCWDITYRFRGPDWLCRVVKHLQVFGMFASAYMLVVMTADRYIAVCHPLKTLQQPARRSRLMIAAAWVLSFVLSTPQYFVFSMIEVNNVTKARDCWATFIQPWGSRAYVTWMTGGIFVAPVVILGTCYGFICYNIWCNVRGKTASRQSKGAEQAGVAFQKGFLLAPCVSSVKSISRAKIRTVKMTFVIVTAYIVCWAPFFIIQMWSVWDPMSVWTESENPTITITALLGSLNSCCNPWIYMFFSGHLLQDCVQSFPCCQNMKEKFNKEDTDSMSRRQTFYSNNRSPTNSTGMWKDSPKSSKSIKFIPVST
168 GPCRs (Homo sapiens, UniProt O95136), sequence (O95136 whole entry): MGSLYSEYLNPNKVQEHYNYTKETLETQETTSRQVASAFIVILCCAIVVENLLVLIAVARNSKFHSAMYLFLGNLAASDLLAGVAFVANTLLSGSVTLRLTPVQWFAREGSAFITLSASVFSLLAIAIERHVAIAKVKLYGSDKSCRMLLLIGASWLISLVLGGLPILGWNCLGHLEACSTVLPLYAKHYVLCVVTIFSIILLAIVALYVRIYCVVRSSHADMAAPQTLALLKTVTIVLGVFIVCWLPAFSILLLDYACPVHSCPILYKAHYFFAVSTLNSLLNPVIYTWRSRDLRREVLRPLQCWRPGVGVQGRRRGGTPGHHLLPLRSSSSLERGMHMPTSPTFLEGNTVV
168 GPCRs (Homo sapiens, UniProt P49683), sequence (P49683 whole entry): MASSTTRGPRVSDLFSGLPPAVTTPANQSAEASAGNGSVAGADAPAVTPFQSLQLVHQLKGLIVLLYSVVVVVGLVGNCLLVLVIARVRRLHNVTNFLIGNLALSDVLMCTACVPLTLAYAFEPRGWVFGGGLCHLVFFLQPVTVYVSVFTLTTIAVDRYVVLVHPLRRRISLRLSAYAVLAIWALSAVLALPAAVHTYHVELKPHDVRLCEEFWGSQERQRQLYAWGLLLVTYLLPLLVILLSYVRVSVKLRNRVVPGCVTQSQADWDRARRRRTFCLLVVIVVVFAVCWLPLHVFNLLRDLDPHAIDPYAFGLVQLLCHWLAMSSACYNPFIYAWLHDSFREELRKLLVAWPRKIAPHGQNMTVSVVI
168 GPCRs (Homo sapiens, UniProt P25024), sequence (P25024 whole entry): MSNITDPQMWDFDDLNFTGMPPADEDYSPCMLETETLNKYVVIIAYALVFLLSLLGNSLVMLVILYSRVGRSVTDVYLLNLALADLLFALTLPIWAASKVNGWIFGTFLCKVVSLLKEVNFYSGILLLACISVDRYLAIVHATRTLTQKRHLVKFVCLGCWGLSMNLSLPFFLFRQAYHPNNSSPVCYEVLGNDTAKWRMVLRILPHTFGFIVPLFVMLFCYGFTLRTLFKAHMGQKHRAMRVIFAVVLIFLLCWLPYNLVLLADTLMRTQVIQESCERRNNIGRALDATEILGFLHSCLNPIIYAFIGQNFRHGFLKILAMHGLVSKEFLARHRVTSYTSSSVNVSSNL
168 GPCRs (Homo sapiens, UniProt P25106), sequence (P25106 whole entry): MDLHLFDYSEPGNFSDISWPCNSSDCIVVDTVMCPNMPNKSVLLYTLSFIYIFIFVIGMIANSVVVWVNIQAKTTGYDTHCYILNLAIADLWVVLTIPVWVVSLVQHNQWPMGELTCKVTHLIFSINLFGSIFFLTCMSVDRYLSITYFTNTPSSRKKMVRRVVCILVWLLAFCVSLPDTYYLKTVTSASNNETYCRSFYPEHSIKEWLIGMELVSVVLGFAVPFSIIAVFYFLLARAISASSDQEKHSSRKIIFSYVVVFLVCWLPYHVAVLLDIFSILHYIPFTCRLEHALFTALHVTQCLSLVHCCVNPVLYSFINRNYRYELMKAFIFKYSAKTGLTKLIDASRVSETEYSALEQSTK
168 GPCRs (Homo sapiens, UniProt Q15077), sequence (Q15077 whole entry): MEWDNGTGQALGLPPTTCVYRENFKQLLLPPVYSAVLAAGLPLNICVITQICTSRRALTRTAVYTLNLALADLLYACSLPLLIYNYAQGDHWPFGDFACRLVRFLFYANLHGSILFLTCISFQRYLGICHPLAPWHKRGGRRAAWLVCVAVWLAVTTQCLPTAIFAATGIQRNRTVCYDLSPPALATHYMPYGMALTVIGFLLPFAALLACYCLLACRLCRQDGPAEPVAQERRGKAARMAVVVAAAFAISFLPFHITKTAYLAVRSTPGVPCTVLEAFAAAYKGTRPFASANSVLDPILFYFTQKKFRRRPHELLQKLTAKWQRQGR
168 GPCRs (Homo sapiens, UniProt Q9HC97), sequence (Q9HC97 whole entry): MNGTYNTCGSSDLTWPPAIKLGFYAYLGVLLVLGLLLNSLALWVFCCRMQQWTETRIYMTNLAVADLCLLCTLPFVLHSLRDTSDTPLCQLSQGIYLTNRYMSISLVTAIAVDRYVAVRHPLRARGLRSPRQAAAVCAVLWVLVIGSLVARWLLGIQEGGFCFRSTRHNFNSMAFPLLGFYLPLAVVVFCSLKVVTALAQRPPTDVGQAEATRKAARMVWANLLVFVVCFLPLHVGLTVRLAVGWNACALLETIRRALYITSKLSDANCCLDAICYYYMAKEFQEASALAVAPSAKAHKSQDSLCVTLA

In the case of `CNC(C)C(=O)c1ccc2c(c1)OCO2` (stereo not shown) [methylone, 3,4-methylenedioxy-N-methylcathinone], the activity at 10 µM (168 GPCRs [1]; CXCR3, Antagonist mode, 10 uM) is reported as -3.9%, the activity at 1 µM (168 GPCRs [1]; CXCR3, Antagonist, 1 uM) is reported as 4.5% and the activity at 10 µM (168 GPCRs [2]; CXCR7, Antagonist mode, 10 uM) is reported as 7.3%. It also gave an activity at 1 µM (168 GPCRs [2]; CXCR7, Antagonist, 1 uM) of 14.1%, an activity at 10 µM (168 GPCRs [3]; Antagonist mode, 10 uM) of 0.1% and an activity at 1 µM (168 GPCRs [3]; Antagonist, 1 uM) of 1.1%. It also gave an activity at 1 µM (168 GPCRs [4]; 1 uM) of 1.7%, an activity at 10 µM (168 GPCRs [4]; 10 uM) of -0.5% and an activity at 10 µM (168 GPCRs [5]; P2RY6, Antagonist mode, 10 uM) of 2.6%. It also gave an activity at 1 µM (168 GPCRs [5]; P2RY6, Antagonist, 1 uM) of 6.5%, an activity at 10 µM (168 GPCRs [6]; OPRD1, Antagonist mode, 10 uM) of 3.5% and an activity at 1 µM (168 GPCRs [6]; OPRD1, Antagonist, 1 uM) of -2.7%. For the same molecule, the activity at 10 µM (168 GPCRs [7]; Antagonist mode, 10 uM) was -0.3%, the activity at 1 µM (168 GPCRs [7]; Antagonist, 1 uM) was 1.4% and the activity at 1 µM (168 GPCRs [8]; 1 uM) was -3%. It also gave an activity at 10 µM (168 GPCRs [8]; 10 uM) of 2.8%, an activity at 10 µM (168 GPCRs [9]; PPYR1, Antagonist mode, 10 uM) of 6.5% and an activity at 1 µM (168 GPCRs [9]; PPYR1, Antagonist, 1 uM) of 9.5%. The activity at 10 µM (168 GPCRs [10]; GPR120, Antagonist mode, 10 uM) was 40.3%, the activity at 1 µM (168 GPCRs [10]; GPR120, Antagonist, 1 uM) was 46.5% and the activity at 10 µM (168 GPCRs [11]; CXCR1, Antagonist mode, 10 uM) was 3.1%. It also gave an activity at 1 µM (168 GPCRs [11]; CXCR1, Antagonist, 1 uM) of 12.1%, an activity at 10 µM (168 GPCRs [12]; HRH3, Antagonist mode, 10 uM) of 5.8% and an activity at 1 µM (168 GPCRs [12]; HRH3, Antagonist, 1 uM) of 9.5%. For the same molecule, the activity at 10 µM (168 GPCRs [13]; EDG5, Antagonist mode, 10 uM) was -6.3%, the activity at 1 µM (168 GPCRs [13]; EDG5, Antagonist, 1 uM) was -3.4% and the “antagonist activity at any of the 168 GPCRs (criterion >50% inhibition)” value (168 GPCRs [14]; 1 and 10 micromolar) was “did not meet criteria for agonist or antagonist activity”. For the same molecule, the “% Activity” value (168 GPCRs [14]; DRD2S, Antagonist mode, 10 uM) was −11.6%, the “% Activity” value (168 GPCRs [14]; DRD2S, Antagonist, 1 uM) was 3.6% and the “% Activity” value (168 GPCRs [14]; NPSR1b, Antagonist mode, 10 uM) was −7.6%. The “% Activity” value (168 GPCRs [14]; NPSR1b, Antagonist, 1 uM) was −10.6%, the activity at 10 µM (168 GPCRs [15]; Antagonist mode, 10 uM) was -6.4% and the activity at 1 µM (168 GPCRs [15]; Antagonist, 1 uM) was -5.2%. It also gave an activity at 10 µM (168 GPCRs [16]; GPR35, Antagonist mode, 10 uM) of 7.3%, an activity at 1 µM (168 GPCRs [16]; GPR35, Antagonist, 1 uM) of 13.2% and an activity at 10 µM (168 GPCRs [17]; Antagonist mode, 10 uM) of 15.8%. It also gave an activity at 1 µM (168 GPCRs [17]; Antagonist, 1 uM) of 17.8%, an activity at 10 µM (168 GPCRs [18]; P2RY4, Antagonist mode, 10 uM) of 17.5% and an activity at 1 µM (168 GPCRs [18]; P2RY4, Antagonist, 1 uM) of 15.1%. It also gave an activity at 1 µM (168 GPCRs [19]; 1 uM) of -5.5%, an activity at 10 µM (168 GPCRs [19]; 10 uM) of 14.6% and an activity at 1 µM (168 GPCRs [20]; 1 uM) of -8%. It also gave an activity at 10 µM (168 GPCRs [20]; 10 uM) of -7.6%.
